IC50 data for 5 compounds are collected here from ChEMBL document CHEMBL1145312, “Structure-activity relationships of triazolopyridine oxazole p38 inhibitors: identification of candidates for clinical development” (Bioorg Med Chem Lett, 2006).

Assay [1] has as its target Cyclin-dependent kinase 2 (Homo sapiens, UniProt P24941). The experiment in a line: Inhibition of CDK2.
The target in assay [2] is T1, Serine/threonine-protein kinase Chk1 (Homo sapiens, UniProt O14757).
T1 sequence (O14757 whole entry): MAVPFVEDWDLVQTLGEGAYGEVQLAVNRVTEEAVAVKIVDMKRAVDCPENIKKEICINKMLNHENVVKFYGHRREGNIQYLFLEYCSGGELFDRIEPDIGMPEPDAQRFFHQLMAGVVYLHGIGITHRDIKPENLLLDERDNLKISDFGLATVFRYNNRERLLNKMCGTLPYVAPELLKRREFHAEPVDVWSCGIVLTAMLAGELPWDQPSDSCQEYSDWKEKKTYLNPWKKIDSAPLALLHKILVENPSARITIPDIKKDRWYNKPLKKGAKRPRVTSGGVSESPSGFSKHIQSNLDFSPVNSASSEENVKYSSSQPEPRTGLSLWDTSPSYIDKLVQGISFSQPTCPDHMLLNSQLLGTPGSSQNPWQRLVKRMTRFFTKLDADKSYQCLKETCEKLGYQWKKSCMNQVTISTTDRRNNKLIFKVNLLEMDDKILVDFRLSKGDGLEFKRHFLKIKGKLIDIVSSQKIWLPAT
Kind of assay: Inhibition of CHK1.

In assay [3] the target is c-Jun N-terminal kinase, JNK (Homo sapiens, UniProt P45983+P53779+P45984). Kind of assay: Inhibition of JNK. Type of assay: protein assay.
The next assay concerns Monocyte. The experiment in a line: Inhibition of LPS-induced TNFalpha production in human monocytes. Type of assay: functional, cell-based.
For assay [4], the target named is Ribosomal protein S6 kinase alpha-1 (Homo sapiens, UniProt Q15418). Kind of assay: Inhibition of MAPKAP-K1a.
Ribosomal protein S6 kinase alpha-1, sequence (Q15418 whole entry): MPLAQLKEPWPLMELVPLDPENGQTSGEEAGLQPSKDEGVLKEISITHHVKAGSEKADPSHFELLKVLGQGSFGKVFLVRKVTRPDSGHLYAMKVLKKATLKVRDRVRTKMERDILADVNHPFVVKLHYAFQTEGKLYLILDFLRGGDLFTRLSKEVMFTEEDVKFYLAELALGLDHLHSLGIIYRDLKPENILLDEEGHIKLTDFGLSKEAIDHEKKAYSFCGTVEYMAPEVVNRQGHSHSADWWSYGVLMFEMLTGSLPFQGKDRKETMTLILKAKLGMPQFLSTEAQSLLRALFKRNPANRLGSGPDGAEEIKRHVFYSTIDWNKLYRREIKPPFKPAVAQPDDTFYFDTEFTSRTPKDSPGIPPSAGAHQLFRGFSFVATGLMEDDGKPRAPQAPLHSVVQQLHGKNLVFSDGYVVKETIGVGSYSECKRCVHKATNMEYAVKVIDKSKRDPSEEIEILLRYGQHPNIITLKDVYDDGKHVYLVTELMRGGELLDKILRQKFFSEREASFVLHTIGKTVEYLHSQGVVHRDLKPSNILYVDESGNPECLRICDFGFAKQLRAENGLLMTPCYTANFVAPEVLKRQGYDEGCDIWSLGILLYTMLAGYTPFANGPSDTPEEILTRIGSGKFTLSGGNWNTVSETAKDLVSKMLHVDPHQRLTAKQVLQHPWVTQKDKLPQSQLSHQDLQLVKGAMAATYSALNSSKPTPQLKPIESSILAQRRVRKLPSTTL
In assay [5] the target is AMP-activated protein kinase, AMPK. The experiment in a line: Inhibition of AMPK. The format is protein-complex assay.
In assay [6] the target is Dual specificity mitogen-activated protein kinase kinase 1 (Homo sapiens, UniProt Q02750). Kind of assay: Inhibition of MKK1.
Dual specificity mitogen-activated protein kinase kinase 1, sequence (Q02750 whole entry): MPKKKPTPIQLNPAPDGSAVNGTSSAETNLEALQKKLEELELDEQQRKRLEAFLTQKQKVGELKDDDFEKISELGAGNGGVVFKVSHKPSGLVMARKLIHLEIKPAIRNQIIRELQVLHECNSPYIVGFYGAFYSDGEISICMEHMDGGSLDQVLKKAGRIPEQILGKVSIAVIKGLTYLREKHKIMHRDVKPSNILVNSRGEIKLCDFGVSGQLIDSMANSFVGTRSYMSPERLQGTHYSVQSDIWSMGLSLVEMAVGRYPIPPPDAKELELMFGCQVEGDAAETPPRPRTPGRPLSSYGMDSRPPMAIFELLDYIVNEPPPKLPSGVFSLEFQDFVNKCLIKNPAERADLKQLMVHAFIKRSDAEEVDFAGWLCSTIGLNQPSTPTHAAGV
A short description of assay [7]: Inhibition of PI3K.
Assay [8] has as its target MAP kinase-activated protein kinase 2 (Homo sapiens, UniProt P49137). The experiment in a line: Inhibition of MAPKAP-K2.
Assay [9] has as its target T2, MAP kinase-activated protein kinase 5 (Homo sapiens, UniProt Q8IW41).
T2 sequence (Q8IW41 whole entry): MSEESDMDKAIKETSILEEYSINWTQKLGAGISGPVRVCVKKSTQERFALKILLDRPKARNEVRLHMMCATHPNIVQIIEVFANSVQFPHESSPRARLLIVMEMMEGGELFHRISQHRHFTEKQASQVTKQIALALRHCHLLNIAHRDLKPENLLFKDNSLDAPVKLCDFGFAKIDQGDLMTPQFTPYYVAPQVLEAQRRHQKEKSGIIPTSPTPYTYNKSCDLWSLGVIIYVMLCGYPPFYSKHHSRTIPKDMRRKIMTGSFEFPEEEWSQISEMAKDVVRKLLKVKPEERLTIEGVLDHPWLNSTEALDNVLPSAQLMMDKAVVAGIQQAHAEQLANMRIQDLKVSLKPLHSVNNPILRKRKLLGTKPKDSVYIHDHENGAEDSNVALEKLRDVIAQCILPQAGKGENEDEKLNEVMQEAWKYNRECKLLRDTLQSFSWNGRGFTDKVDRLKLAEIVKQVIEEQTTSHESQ
The experiment in a line: Inhibition of PRAK.

The target of assay [10] is Ribosomal protein S6 kinase alpha-5 (Homo sapiens, UniProt O75582). Kind of assay: Inhibition of MSK1.
Ribosomal protein S6 kinase alpha-5, sequence (O75582 whole entry): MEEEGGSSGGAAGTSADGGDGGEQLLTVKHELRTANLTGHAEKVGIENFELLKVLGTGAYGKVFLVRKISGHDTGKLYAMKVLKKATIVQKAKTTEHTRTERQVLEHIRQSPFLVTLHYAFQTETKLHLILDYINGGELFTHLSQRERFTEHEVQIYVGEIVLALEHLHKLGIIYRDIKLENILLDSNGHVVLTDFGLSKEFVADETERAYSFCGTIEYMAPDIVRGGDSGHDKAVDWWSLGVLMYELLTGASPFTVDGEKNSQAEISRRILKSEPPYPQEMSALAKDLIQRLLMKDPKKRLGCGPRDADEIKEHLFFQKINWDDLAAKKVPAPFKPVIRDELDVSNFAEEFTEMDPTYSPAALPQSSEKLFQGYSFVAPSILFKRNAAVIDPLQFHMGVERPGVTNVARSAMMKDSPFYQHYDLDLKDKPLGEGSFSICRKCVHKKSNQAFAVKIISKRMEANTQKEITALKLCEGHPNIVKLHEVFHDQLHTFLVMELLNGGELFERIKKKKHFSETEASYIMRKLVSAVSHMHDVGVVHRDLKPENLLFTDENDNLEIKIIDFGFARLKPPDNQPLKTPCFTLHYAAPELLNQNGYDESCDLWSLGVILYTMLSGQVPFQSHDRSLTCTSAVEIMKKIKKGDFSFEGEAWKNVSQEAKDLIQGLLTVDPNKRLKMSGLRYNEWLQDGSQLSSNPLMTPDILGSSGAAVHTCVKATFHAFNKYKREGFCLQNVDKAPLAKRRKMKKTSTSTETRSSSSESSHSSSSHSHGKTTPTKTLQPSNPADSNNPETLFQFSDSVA
For assay [11], the target named is T3, 3-phosphoinositide-dependent protein kinase 1 (Homo sapiens, UniProt O15530).
T3 sequence (O15530 whole entry): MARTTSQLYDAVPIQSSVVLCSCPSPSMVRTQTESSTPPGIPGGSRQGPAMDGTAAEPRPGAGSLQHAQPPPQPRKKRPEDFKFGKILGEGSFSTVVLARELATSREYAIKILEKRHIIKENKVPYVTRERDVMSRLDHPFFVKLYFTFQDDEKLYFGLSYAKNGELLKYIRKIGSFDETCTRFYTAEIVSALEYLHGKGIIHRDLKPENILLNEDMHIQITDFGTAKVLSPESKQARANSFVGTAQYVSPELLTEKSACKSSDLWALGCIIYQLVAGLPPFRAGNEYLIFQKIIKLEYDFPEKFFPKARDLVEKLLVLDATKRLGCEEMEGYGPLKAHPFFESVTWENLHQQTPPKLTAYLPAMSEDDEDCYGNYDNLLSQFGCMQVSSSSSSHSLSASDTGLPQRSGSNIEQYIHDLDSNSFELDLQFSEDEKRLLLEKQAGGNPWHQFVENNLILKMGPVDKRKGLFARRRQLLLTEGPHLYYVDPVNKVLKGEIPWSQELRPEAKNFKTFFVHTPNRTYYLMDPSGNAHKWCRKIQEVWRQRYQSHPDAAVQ
Kind of assay: Inhibition of PDK1.

In assay [12] the target is Ribosomal protein S6 kinase (P70S6K) (Homo sapiens, UniProt P23443+Q9UBS0). The experiment in a line: Inhibition of P70S6K. The format is protein-complex assay.
Ribosomal protein S6 kinase (P70S6K), sequence (Q9UBS0 whole entry): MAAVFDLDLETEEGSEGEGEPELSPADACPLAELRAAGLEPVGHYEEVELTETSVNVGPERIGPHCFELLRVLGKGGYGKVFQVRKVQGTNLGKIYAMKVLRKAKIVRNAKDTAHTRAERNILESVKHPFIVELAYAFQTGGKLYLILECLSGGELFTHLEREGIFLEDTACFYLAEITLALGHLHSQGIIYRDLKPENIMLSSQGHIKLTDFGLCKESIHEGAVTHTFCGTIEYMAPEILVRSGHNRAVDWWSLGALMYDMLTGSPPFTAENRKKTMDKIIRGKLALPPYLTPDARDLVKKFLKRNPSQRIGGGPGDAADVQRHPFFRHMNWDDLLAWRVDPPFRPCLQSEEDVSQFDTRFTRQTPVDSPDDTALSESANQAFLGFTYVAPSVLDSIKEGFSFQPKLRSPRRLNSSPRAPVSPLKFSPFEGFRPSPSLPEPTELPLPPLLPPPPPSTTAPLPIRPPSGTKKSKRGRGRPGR
Ribosomal protein S6 kinase (P70S6K), sequence (P23443 whole entry): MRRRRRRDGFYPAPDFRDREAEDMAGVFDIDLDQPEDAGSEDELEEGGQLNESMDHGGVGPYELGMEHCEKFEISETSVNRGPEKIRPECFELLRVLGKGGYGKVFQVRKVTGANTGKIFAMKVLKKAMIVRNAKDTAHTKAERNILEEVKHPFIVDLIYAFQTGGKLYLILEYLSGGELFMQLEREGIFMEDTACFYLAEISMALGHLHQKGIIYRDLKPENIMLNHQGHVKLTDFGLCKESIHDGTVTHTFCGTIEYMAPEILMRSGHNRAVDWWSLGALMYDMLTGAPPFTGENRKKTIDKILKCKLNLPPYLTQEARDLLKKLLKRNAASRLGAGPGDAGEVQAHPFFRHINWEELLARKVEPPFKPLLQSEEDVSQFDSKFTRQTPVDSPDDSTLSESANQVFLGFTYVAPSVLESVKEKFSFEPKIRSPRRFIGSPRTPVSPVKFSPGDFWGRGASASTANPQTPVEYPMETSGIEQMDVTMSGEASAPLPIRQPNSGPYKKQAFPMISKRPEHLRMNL
Assay [13] deals with Tyrosine-protein kinase CSK (Homo sapiens, UniProt P41240). Kind of assay: Inhibition of CSK.
Tyrosine-protein kinase CSK, sequence (P41240 whole entry): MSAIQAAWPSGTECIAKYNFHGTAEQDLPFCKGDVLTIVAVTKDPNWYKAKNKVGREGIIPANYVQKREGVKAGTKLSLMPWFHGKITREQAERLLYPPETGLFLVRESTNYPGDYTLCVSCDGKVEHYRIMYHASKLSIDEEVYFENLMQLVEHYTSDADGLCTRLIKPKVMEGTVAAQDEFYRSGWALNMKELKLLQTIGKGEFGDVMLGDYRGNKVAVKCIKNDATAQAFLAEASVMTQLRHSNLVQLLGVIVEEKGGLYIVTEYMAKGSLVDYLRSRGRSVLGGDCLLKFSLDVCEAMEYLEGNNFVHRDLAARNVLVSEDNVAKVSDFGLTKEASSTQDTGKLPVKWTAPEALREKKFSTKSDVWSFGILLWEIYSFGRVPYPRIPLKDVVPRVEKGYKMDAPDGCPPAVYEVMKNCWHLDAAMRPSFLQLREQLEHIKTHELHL
The nature of assay [14]: Inhibition of phosphorylase kinase.
Assay [15] concerns the target Mitogen-activated protein kinase 1 (Homo sapiens, UniProt P28482). Kind of assay: Inhibition of ERK2.
The target in assay [16] is Tyrosine-protein kinase Lck (Homo sapiens, UniProt P06239). Kind of assay: Inhibition of Lck.
Assay [17] addresses T4, Mitogen-activated protein kinase 12 (Homo sapiens, UniProt P53778).
T4 sequence (P53778 whole entry): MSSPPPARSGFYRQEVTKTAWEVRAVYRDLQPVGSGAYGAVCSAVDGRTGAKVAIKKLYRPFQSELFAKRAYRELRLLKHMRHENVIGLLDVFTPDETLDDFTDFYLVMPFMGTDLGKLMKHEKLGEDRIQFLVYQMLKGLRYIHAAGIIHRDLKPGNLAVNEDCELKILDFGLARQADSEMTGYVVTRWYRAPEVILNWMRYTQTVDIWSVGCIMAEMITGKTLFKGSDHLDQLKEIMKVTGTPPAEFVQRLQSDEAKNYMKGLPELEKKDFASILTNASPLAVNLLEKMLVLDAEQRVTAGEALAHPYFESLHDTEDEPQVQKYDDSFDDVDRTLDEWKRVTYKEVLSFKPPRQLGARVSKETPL
Kind of assay: Inhibition of p38-gamma.

Assay [18] addresses Protein kinase C alpha type (Homo sapiens, UniProt P17252). The experiment in a line: Inhibition of PKCalpha.
For the next assay, the species on record is Homo sapiens. The experiment in a line: Inhibition of LPS-induced TNFalpha production in human whole blood. Type of assay: functional, organism-based.

Structures are written as SMILES.

MAP kinase-activated protein kinase 2, sequence (P49137 whole entry): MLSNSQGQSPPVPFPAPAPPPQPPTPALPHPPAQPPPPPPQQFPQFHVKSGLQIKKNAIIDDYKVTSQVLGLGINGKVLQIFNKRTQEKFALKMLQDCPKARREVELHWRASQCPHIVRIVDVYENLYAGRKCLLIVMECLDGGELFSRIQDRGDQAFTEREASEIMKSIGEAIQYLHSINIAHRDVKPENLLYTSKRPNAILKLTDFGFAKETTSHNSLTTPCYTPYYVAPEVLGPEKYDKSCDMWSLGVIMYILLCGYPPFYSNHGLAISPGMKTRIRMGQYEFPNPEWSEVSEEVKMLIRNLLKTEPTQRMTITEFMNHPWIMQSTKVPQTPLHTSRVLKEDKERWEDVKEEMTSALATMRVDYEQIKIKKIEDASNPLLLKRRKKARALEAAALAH
Mitogen-activated protein kinase 1, sequence (P28482 whole entry): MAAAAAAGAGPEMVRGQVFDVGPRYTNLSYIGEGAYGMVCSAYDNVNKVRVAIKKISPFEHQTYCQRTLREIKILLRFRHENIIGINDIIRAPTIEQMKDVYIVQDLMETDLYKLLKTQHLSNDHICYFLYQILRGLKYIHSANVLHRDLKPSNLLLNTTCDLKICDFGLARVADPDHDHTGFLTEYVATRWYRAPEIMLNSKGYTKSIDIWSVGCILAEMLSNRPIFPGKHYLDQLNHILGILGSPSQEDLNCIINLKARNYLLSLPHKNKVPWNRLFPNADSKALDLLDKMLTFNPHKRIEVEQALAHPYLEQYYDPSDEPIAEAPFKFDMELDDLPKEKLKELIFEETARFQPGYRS

Usually IC50 stands for the point on the concentration scale where inhibition reaches its midpoint. As for `CC(C)(C)c1nnc2ccc(-c3ocnc3-c3ccc(F)cc3F)cn12`, the IC50 was greater than 10 µM in assay [1]; greater than 10 µM in assay [2]; greater than 10 µM in [3]; 0.0126 µM in the assay with Monocyte; greater than 10 µM in assay [4]; greater than 10 µM in assay [5]. The concentration for half-maximal inhibition (IC50) in assay [6], in assay [7], in [8], in [9], in [10] and in [11] was greater than 10 µM in each case. Also, the IC50 in [12], in assay [13], in assay [14], in [15], in assay [16] and in [17] was greater than 10 µM each time. Besides, the IC50 in assay [18] is greater than 10 µM; in the assay filed under Homo sapiens, 0.076 µM.
As for `CC(C)(C)c1nnc2ccc(-c3ocnc3-c3cc(F)c(F)cc3F)cn12`, the IC50 was greater than 10 µM in assay [1]; greater than 10 µM in [2]; greater than 10 µM in assay [3]; 0.0083 µM with Monocyte; greater than 10 µM in assay [4]; greater than 10 µM in assay [5]. The IC50 in assay [6], in assay [7], in [8], in [9], in [10] and in [11] was greater than 10 µM throughout. Further, the IC50 in assay [12], in assay [13], in assay [14], in assay [15], in [17] and in assay [18] was greater than 10 µM throughout. In the assay filed under Homo sapiens, this compound had an IC50 of 0.063 µM.
For the compound `CCNc1nnc2ccc(-c3ocnc3-c3ccc(F)cc3)cn12`, the 50% inhibitory concentration (IC50) in assay [1] was greater than 10 µM; in [2], greater than 10 µM; in assay [3], greater than 10 µM; with Monocyte it was 0.052 µM; in [4] it was greater than 10 µM; in [5] it was greater than 10 µM. Further, the half-inhibitory concentration (IC50) in assay [6], in [7], in assay [8], in assay [9], in assay [10] and in assay [11] was greater than 10 µM throughout. For the same compound, the IC50 in [12], in assay [13], in [14], in assay [15], in assay [16] and in assay [17] was greater than 10 µM throughout. Moreover, the IC50 is greater than 10 µM in [18] and 0.865 µM in the assay listed under Homo sapiens.
On to `CC(C)c1nnc2ccc(-c3c[nH]nc3-c3cc(F)ccc3F)cn12`, for which the 50% inhibitory concentration (IC50) in [1] was greater than 10 µM; in assay [2], greater than 10 µM; in assay [3] it was greater than 10 µM; in the assay with Monocyte it was 0.0141 µM; in assay [4], greater than 10 µM; in assay [5] it was greater than 10 µM. In addition, the 50% inhibitory concentration (IC50) in [6], in [7], in assay [8], in assay [9], in [10] and in assay [11] was greater than 10 µM each time. Also, the IC50 in [12], in assay [13], in [14], in [15], in [16] and in assay [17] was greater than 10 µM each time. The half-inhibitory concentration (IC50) in assay [18] is greater than 10 µM; in the assay listed under Homo sapiens, 0.18 µM.
Regarding `CC(C)c1nnc2ccc(-c3ocnc3-c3ccccc3)cn12`, the IC50 was greater than 10 µM in [1]; greater than 10 µM in assay [2]; greater than 10 µM in assay [3]; 0.0714 µM in the assay on Monocyte; greater than 10 µM in assay [4]; greater than 10 µM in [5]. In addition, the IC50 in assay [6], in [7], in [8], in [9], in [10] and in [11] was greater than 10 µM in each case. Further, the IC50 in [12], in [13], in [14], in [15], in [17] and in assay [18] was greater than 10 µM in each case. The compound also yielded an IC50 in the assay filed under Homo sapiens of 0.973 µM.
